Test systems include A549; RPMI-8226; MDA-MB-231; M14; T47D; NCI-H23; PC-3; CCRF-CEM; SF-295; NCI/ADR-RES; LOX IMVI; NCI-H460; UACC-257; OVCAR-3; Malme-3M; HCC 2998; HCT-116; IGROV-1; Hs-578T; SK-MEL-2.
Assay in all cases: NCI tumour cell line growth inhibition, 48 h

This is an account of results in ChEMBL document CHEMBL1201862, “PubChem BioAssay data set” (2004).

Molecules are shown by their SMILES.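 48-hour exposure; five concentrations; linearly interpolated endpoints. GI50 marks 50% less growth.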 Activity calls are given as the source filed them. No stated cut-off is given here; in the data, active = GI50 up to about 1.1 µM and inactive = higher.

`CC1=C2C(=O)OCC23C=COC3(C)O1` (stereo not given): the GI50 is 66.7 µM (inactive) with A549; 32.5 µM (inactive) in the assay with RPMI-8226; 18.6 µM (inactive) in the assay with MDA-MB-231; 24.7 µM (inactive) in the assay on M14; 29.3 µM (inactive) with T47D; 39 µM (inactive) with NCI-H23. The GI50 in the assay on PC-3 is 38.2 µM (inactive); in the assay on CCRF-CEM, 33.5 µM (inactive); in the assay on SF-295 it was 41.4 µM (inactive); with NCI/ADR-RES it was 34.9 µM (inactive); in the assay on LOX IMVI, 30.3 µM (inactive); in the assay on NCI-H460, 48.4 µM (inactive). The GI50 with UACC-257 was 32.7 µM (inactive); with OVCAR-3, 33.4 µM (inactive); in the assay on Malme-3M, 27.9 µM (inactive); with HCC 2998 it was 69.3 µM (inactive); in the assay with HCT-116 it was 26.9 µM (inactive); in the assay on IGROV-1 it was 32.7 µM (inactive). The GI50 is 50.4 µM (inactive) with Hs-578T and 32.6 µM (inactive) in the assay with SK-MEL-2.

On to `N#CC(NNC(=O)c1ccccc1O)c1c(O)ccc2ccccc12` (stereo not given), for which the GI50 with A549 was 2.94 µM (inactive); in the assay with RPMI-8226, 3.48 µM (inactive); in the assay on MDA-MB-231, 3.2 µM (inactive); in the assay with M14 it was 3.46 µM (inactive); with T47D, 2.96 µM (inactive); in the assay on NCI-H23 it was 4.65 µM (inactive). Also, the GI50 with PC-3 was 4.03 µM (inactive); with CCRF-CEM, 0.962 µM (active); with SF-295, 4.78 µM (inactive); in the assay on NCI/ADR-RES it was 3.44 µM (inactive); in the assay on LOX IMVI, 0.877 µM (active); in the assay on NCI-H460 it was 2.99 µM (inactive). The GI50 in the assay with UACC-257 was 3.67 µM (inactive); with OVCAR-3 it was 2.54 µM (inactive); in the assay on Malme-3M, 6.27 µM (inactive); in the assay on HCC 2998, 9.55 µM (inactive); with HCT-116, 2.84 µM (inactive); in the assay with IGROV-1, 4.4 µM (inactive). Further, the GI50 with Hs-578T was 17.3 µM (inactive); in the assay with SK-MEL-2, 3.72 µM (inactive).

As to `c1ccc2c(c1)[nH]c1c3ccccc3sc21`, the GI50 in the assay with A549 is 77.4 µM (inactive); with RPMI-8226 it was > 100 µM (inactive); in the assay on MDA-MB-231, > 100 µM (inactive); in the assay on M14, > 100 µM (inactive); in the assay on T47D, 38.3 µM (inactive); in the assay on NCI-H23, > 100 µM (inactive). Further, the GI50 is > 100 µM (inactive) with PC-3; > 100 µM (inactive) in the assay on CCRF-CEM; 38.1 µM (inactive) with SF-295; > 100 µM (inactive) in the assay with NCI/ADR-RES; > 100 µM (inactive) in the assay on LOX IMVI; > 100 µM (inactive) in the assay with NCI-H460. Further, the GI50 in the assay with UACC-257 is 36.5 µM (inactive); in the assay with OVCAR-3, > 100 µM (inactive); with Malme-3M, > 100 µM (inactive); with HCC 2998, > 100 µM (inactive); in the assay with HCT-116 it was 82.6 µM (inactive); in the assay on IGROV-1, > 100 µM (inactive). Further, the GI50 with Hs-578T and in the assay on SK-MEL-2 was > 100 µM (inactive) throughout.

For the compound `O=C(O)C/C=C/CC(=O)O`, the GI50 with A549, in the assay on RPMI-8226, with MDA-MB-231, in the assay on M14, with T47D and with NCI-H23 was > 100 µM (inactive) each time. Also, the GI50 with PC-3, in the assay with CCRF-CEM, in the assay with SF-295, in the assay on NCI/ADR-RES, in the assay on LOX IMVI and in the assay with NCI-H460 was > 100 µM (inactive) each time. The GI50 with UACC-257, in the assay with OVCAR-3, in the assay with Malme-3M, with HCC 2998, in the assay on HCT-116 and with IGROV-1 was > 100 µM (inactive) each time. For the same compound, the GI50 with Hs-578T and in the assay with SK-MEL-2 was > 100 µM (inactive) in each case.

For the compound `CCCCCc1cc2cc3c(c(O)c2c(=O)[nH]1)C1(CCC3)C(=O)c2c(O)c3c(c(O)c2C1=O)C(=O)C(OC)=CC3=O` (stereo not given), the GI50 was 1 µM (active) with A549; 0.386 µM (active) with RPMI-8226; 0.792 µM (active) in the assay on MDA-MB-231; 0.908 µM (active) in the assay on M14; 0.0959 µM (active) with T47D; 0.828 µM (active) in the assay with NCI-H23. For the same compound, the GI50 in the assay on PC-3 is 1.1 µM (active); with CCRF-CEM it was 0.586 µM (active); in the assay on SF-295 it was 1.91 µM (inactive); in the assay on NCI/ADR-RES, 4.56 µM (inactive); in the assay on LOX IMVI it was 0.661 µM (active); in the assay with NCI-H460 it was 0.757 µM (active). The GI50 with UACC-257 is 0.783 µM (active); with OVCAR-3, 0.499 µM (active); with Malme-3M, 0.468 µM (active); in the assay with HCC 2998, 2.05 µM (inactive); in the assay on HCT-116 it was 0.561 µM (active); in the assay with IGROV-1, 1.03 µM (active). Moreover, the GI50 was 0.743 µM (active) with Hs-578T and 1.24 µM (inactive) with SK-MEL-2.

For the compound `CC1(C)CC(=O)C(CC2C(=O)c3ccccc3C2=O)C(=O)C1C(=O)C(=O)Nc1cccc2ccc(O)cc12` (stereo not given), the GI50 in the assay on A549 is > 100 µM (inactive); in the assay with RPMI-8226, 66.5 µM (inactive); with MDA-MB-231, 34 µM (inactive); in the assay with M14, > 100 µM (inactive); in the assay with T47D, 27.4 µM (inactive); in the assay with NCI-H23, 67.1 µM (inactive). The GI50 in the assay on PC-3 was 51.4 µM (inactive); in the assay with CCRF-CEM, < 0.01 µM (active); in the assay with SF-295 it was 92.3 µM (inactive); with NCI/ADR-RES, 54.1 µM (inactive); in the assay with LOX IMVI, 94.4 µM (inactive); in the assay with NCI-H460 it was > 100 µM (inactive). Also, the GI50 was > 100 µM (inactive) with UACC-257; 48.9 µM (inactive) in the assay on OVCAR-3; > 100 µM (inactive) in the assay on Malme-3M; > 100 µM (inactive) in the assay on HCC 2998; > 100 µM (inactive) in the assay with HCT-116; 48.9 µM (inactive) in the assay on IGROV-1. Besides, the GI50 in the assay with Hs-578T is 74.6 µM (inactive); with SK-MEL-2, > 100 µM (inactive).

Turning to `CC(C)=CCC/C(C)=C/CC/C(C)=C/CC/C(C=O)=C/CC/C(C)=C\CC/C(C)=C/CC/C(C)=C/CC/C(C)=C/CC1=CC(=O)C=CC1=O`, the GI50 with A549 was > 100 µM (inactive); in the assay with RPMI-8226, 37.4 µM (inactive); with MDA-MB-231, > 100 µM (inactive); in the assay with M14 it was 45.3 µM (inactive); with T47D it was 10.5 µM (inactive); in the assay on NCI-H23, 22.9 µM (inactive). Further, the GI50 is > 100 µM (inactive) in the assay on PC-3; 72.8 µM (inactive) in the assay on CCRF-CEM; 91.4 µM (inactive) with SF-295; > 100 µM (inactive) in the assay on NCI/ADR-RES; 80.2 µM (inactive) in the assay with LOX IMVI; > 100 µM (inactive) with NCI-H460. The GI50 in the assay with UACC-257 is 48 µM (inactive); in the assay on OVCAR-3, 54.2 µM (inactive); with Malme-3M, 21.8 µM (inactive); with HCC 2998 it was > 100 µM (inactive); in the assay on HCT-116, 73.5 µM (inactive); in the assay with IGROV-1 it was 31.8 µM (inactive). Besides, the GI50 in the assay on Hs-578T is 62.4 µM (inactive); in the assay on SK-MEL-2, 31.8 µM (inactive).

As for `O=C1c2cc3c(cc2CC12Cc1cc4c(cc1C2=O)CCCC4)CCCC3`, the GI50 was 59.2 µM (inactive) in the assay with A549; > 100 µM (inactive) in the assay on RPMI-8226; 22.1 µM (inactive) in the assay on MDA-MB-231; 65.2 µM (inactive) with M14; 18.5 µM (inactive) in the assay with T47D; 33.3 µM (inactive) in the assay on NCI-H23. Moreover, the GI50 with PC-3 is 40.2 µM (inactive); with CCRF-CEM, > 100 µM (inactive); with SF-295 it was 23.2 µM (inactive); with NCI/ADR-RES it was 24.6 µM (inactive); in the assay on LOX IMVI, > 100 µM (inactive); in the assay with NCI-H460, 25.6 µM (inactive). In addition, the GI50 in the assay with UACC-257 was 10.9 µM (inactive); in the assay on OVCAR-3, 23.7 µM (inactive); in the assay with Malme-3M, > 100 µM (inactive); in the assay on HCC 2998 it was > 100 µM (inactive); in the assay on HCT-116 it was 62.7 µM (inactive); in the assay on IGROV-1, 71 µM (inactive). Further, the GI50 with Hs-578T was 28.3 µM (inactive); in the assay on SK-MEL-2, 75.9 µM (inactive).

Regarding `COc1cc(C2CC(C)(O)Oc3cc4c(cc32)OCO4)cc(OC)c1OC` (stereo not given), the GI50 in the assay with A549 was 2.49 µM (inactive); in the assay on RPMI-8226 it was 0.325 µM (active); in the assay with MDA-MB-231, 0.252 µM (active); with M14, 0.466 µM (active); in the assay on T47D, 0.296 µM (active); in the assay on NCI-H23, 0.474 µM (active). Moreover, the GI50 with PC-3 is 0.274 µM (active); in the assay with CCRF-CEM, 0.34 µM (active); in the assay with SF-295, 0.184 µM (active); in the assay on NCI/ADR-RES, 0.233 µM (active); with LOX IMVI it was 0.839 µM (active); in the assay on NCI-H460, 0.389 µM (active). For the same compound, the GI50 with UACC-257 is 0.822 µM (active); in the assay with OVCAR-3, 0.315 µM (active); in the assay on Malme-3M, 0.205 µM (active); with HCC 2998, 1.31 µM (inactive); with HCT-116 it was 0.449 µM (active); in the assay with IGROV-1, 0.668 µM (active). For the same compound, the GI50 in the assay with Hs-578T was 0.263 µM (active); in the assay on SK-MEL-2, 1.04 µM (active).

With `O=C1Nc2ccccc2/C1=C\c1c(Cl)n(-c2ccccc2)c2ccccc12`, the GI50 with A549 is 3.52 µM (inactive); with RPMI-8226, 4.92 µM (inactive); with MDA-MB-231, 3.03 µM (inactive); in the assay with M14, 2.92 µM (inactive); in the assay on T47D, 3.41 µM (inactive); in the assay with NCI-H23 it was 2.45 µM (inactive). Also, the GI50 with PC-3 was 3.78 µM (inactive); in the assay with CCRF-CEM, 6.65 µM (inactive); in the assay on SF-295, 3.18 µM (inactive); in the assay with NCI/ADR-RES, 2.38 µM (inactive); with LOX IMVI, 3.56 µM (inactive); in the assay with NCI-H460 it was 3.18 µM (inactive). Besides, the GI50 was 9.2 µM (inactive) in the assay with UACC-257; 1.92 µM (inactive) with OVCAR-3; 2.07 µM (inactive) with Malme-3M; 3.15 µM (inactive) in the assay with HCC 2998; 2.11 µM (inactive) in the assay with HCT-116; 2.75 µM (inactive) in the assay with IGROV-1. For the same compound, the GI50 in the assay with Hs-578T was 0.851 µM (active); in the assay with SK-MEL-2 it was 8.69 µM (inactive).
